Among the data in US4528380A, “5-(1-Propyl)n-butyl tetrazoles” (Delalande S.A., priority 1981, dated 1985) are ED50 and LD50 values, retold here.

Where only a bound is given, the exact number is not on record here.

Data set [1] relates to mortality induced by bicucullin. Briefly: Protection against mortality induced by intravenous bicucullin (anti-convulsive activity). The class given is in vivo. The note with it: Mus musculus, ip; mice, compound i.p.; intravenous injection of 0.7 mg/kg of bicucullin; read-out: ED 50 against mortality induced by bicucullin.
Data set [2] in a line: Acute toxicity, intraperitoneal, method of Miller and Tainter. The note with it: mouse, in vivo, ip, mice, read-out: Acute toxicity LD 50. As for the experimental part:
Acute toxicity is assessed intraperitoneally on mice according to the method of Miller and Tainter described in Proc. Soc. Exp. Biol. Med. 57, 261, (1944).

For the compound `CCCC(CCC)(CCC)c1nn[nH]n1` [compound 5], the ED50 in data set [1] stood at 44 mg/kg. In addition, the LD50 in data set [2] was determined as 280 mg/kg.
For `CCCC(CCC)c1nn[nH]n1` [compound 6, [1-(1-n propyl)nbutyl] tetrazole], in that order: 135 mg/kg and over 400 mg/kg.
Taken in the same sequence, the figures for `CCC(C)(C)c1nn[nH]n1` [compound 1] were 100 mg/kg and over 400 mg/kg.
Taken in the same sequence, the figures for `CCCCC(C)(CC)c1nn[nH]n1` (centres unmarked) [compound 3] were 120 mg/kg and 320 mg/kg.
